From patent US5100873A, “Irreversible peptide ligands for bombesin receptors, their use, and process for making the same” (priority 1988, dated 1992)
Structures can show the parent of a compound that is named as a salt. Where two headings read alike, the source gives them in different places. *1 amine or outer side, *2 acyl side, *3 side chain or, on linkers, in order; H or OH if unused. Where a SMILES comes first, the peptide text is derived from it. [ ]: non-standard residue; d: D form. The star is where a group is joined. Phe(4-N(CH2CH2Cl)2) = N[C@@H](Cc1ccc(N(CCCl)CCCl)cc1)C(=O)O; X1 = O=C([C@H](Cc1cccc(N(CCCl)CCCl)c1)N[*:1])[*:2]; Boc = CC(C)(C)OC(=O)*

Columns and labels:
Swiss 3T3 fibroblasts [1] = assay: [H3]thymidine incorporation (mitogenesis), analogues given alone; assay type: cell-based, mouse; details: for [H3]thymidine incorporation, fold increase over basal value: analogue alone; for Effect on thymidine incorporation (in words): given alone
Method: (§1) The effect on mitogenesis was determined in quiescent and confluent Swiss 3T3 cells maintained in serum free medium (A. N. Corps et al (1985) Biochem J. 231, 781-785). In a first set of experiments, analogues were given alone or in combination with bombesin. In a second set of experiments, cells were pre-treated with the alkylating peptides, washed, left at 37° C. for 24 hours and then challenged with bombesin. In both cases, DNA synthesis was evaluated as [H^3 ]thymidine incorporation (Table 2).

[2] = tested on: p115 protein associated with the bombesin receptor complex; assay: Phosphorylation of the p115 protein associated with the bombesin receptor; assay type: cell-based
Method: Mitogenic effect of bombesin and its analogues were also evaluated as activation of the proteintyrosin kinase that phosphorylates a 115 KD protein (p115) associated with the bombesin receptor complex (D. Cirillo et al. (1986) Mol. Cell. Biol. 6, 4641-4649) (Table 3).

bombesin receptors = target: T1, bombesin receptors (Mus musculus, UniProt P21729); assay: Binding affinity for bombesin receptors on mouse Swiss 3T3 fibroblasts; details: for ID50: mouse Swiss 3T3 fibroblasts
T1 construct: bombesin receptors was determined on mouse Swiss 3T3 fibroblasts; endogenous in cells; host or cells: mouse Swiss 3T3 fibroblasts
T1 sequence (P21729 whole entry): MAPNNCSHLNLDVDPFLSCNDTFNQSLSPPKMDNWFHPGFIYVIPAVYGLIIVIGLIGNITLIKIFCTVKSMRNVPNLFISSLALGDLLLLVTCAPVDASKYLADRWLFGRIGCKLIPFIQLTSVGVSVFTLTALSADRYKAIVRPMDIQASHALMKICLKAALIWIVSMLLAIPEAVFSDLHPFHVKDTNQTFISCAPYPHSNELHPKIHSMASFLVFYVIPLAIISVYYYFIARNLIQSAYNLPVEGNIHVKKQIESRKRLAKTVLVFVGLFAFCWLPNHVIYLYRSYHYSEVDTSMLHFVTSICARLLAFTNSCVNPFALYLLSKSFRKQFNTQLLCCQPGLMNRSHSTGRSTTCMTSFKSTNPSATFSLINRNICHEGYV
Method: The binding affinity of the compounds of the present invention for bombesin receptors was determined on mouse Swiss 3T3 fibroblasts (I. Zachary and E. Rozengurt (1985) Proc. Natl. Acad. Sci. USA, 82, 7616-7620) (Table 1).

Swiss 3T3 fibroblasts [3] = assay: Inhibition of BBS-induced [H3]thymidine incorporation (given with BBS or as pre-treatment); assay type: cell-based, mouse
Swiss 3T3 fibroblasts [4] = assay: as above; assay type: cell-based, mouse; details: for % inhibition in the presence of 25 nM BBS (A): A = analogues given in combination with BBS; for % inhibition in the presence of 25 nM BBS (B): B = cells pretreated with analogues, washed, left at 37° C. for 24 h, then challenged with BBS; for Antagonism of BBS (in words): given together / contemporaneously with BBS
Method: as §1

CSCC[C@H](NC(=O)[C@H](CC(C)C)NC(=O)[C@H](Cc1cnc[nH]1)NC(=O)CNC(=O)[C@@H](NC(=O)[C@H](C)NC(=O)[C@H](Cc1c[nH]c2ccccc12)NC(=O)[C@H](CCC(N)=O)NC(=O)[C@H](CC(N)=O)NC(=O)CNC(=O)[C@H](CC(C)C)NC(=O)[C@H](CCCN=C(N)N)NC(=O)[C@H](CCC(N)=O)NC(=O)[C@@H]1CCC(=O)N1)C(C)C)C(N)=O [BBS, Glp-Gln-Arg-Leu-Gly-Asn-Gln-Trp-Ala-Val-Gly-His-Leu-Met-NH2, reference compound]
[H3]thymidine incorporation, fold increase over basal value (Swiss 3T3 fibroblasts [1]; 5 nM): 3.0 ± 1
Minimal active dose, p115 phosphorylation [2]: 3

CC(C)[C@H](NC(=O)[C@H](C)NC(=O)[C@H](Cc1c[nH]c2ccccc12)NC(=O)[C@H](CCC(N)=O)NC(=O)[C@H](Cc1ccc(N(CCCl)CCCl)cc1)NC(=O)OC(C)(C)C)C(=O)NCC(=O)O [III, Boc-pMel-Gln-Trp-Ala-Val-Gly-OH] (Boc-[Phe(4-N(CH2CH2Cl)2)]QWAVG-OH)
IC50 (bombesin receptors): 12000 nM

CC(C)[C@H](NC(=O)[C@H](C)NC(=O)[C@H](Cc1c[nH]c2ccccc12)NC(=O)[C@H](CCC(N)=O)NC(=O)[C@H](Cc1cccc(N(CCCl)CCCl)c1)NC(=O)OC(C)(C)C)C(=O)NCC(=O)O [IX, Boc-mMel-Gln-Trp-Ala-Val-Gly-OH] (Boc-[X1]QWAVG-OH)
IC50 (bombesin receptors): 8200 nM

CC(C)C[C@H](NC(=O)[C@H](CC(C)C)NC(=O)[C@@H](Cc1c[nH]c2ccccc12)NC(=O)[C@H](Cc1ccccc1)NC(=O)[C@@H](Cc1c[nH]c2ccccc12)NC(=O)[C@H](CCC(N)=O)NC(=O)[C@H](CCC(N)=O)NC(=O)[C@@H]1CCCN1C(=O)[C@H](CCCCN)NC(=O)[C@@H]1CCCN1C(=O)[C@H](N)CCCNC(=N)N)C(N)=O [Spantide, reference compound] (H-[dR]PKPQQ[dW]F[dW]LL-NH2)
Minimal active dose, p115 phosphorylation [2]: > 10000 nM

CSCC[C@H](NC(=O)[C@H](CC(C)C)NC(=O)[C@H](Cc1c[nH]cn1)NC(=O)CNC(=O)[C@@H](NC(=O)[C@H](C)NC(=O)[C@H](Cc1c[nH]c2ccccc12)NC(=O)[C@H](CCC(N)=O)NC(=O)[C@H](Cc1ccc(N(CCCl)CCCl)cc1)NC(=O)OC(C)(C)C)C(C)C)C(N)=O [VI, Boc-pMel-Gln-Trp-Ala-Val-Gly-His-Leu-Met-NH2]
IC50 (bombesin receptors): 48 ± 2 nM

CSCC[C@H](NC(=O)[C@H](CC(C)C)NC(=O)[C@H](Cc1c[nH]cn1)NC(=O)CNC(=O)[C@@H](NC(=O)[C@H](C)NC(=O)[C@H](Cc1c[nH]c2ccccc12)NC(=O)[C@H](CCC(N)=O)NC(=O)[C@@H](N)Cc1ccc(N(CCCl)CCCl)cc1)C(C)C)C(N)=O [VII, H-pMel-Gln-Trp-Ala-Val-Gly-His-Leu-Met-NH2.2 HCl]
IC50 (bombesin receptors): 60 ± 20 nM

CSCC[C@H](NC(=O)[C@H](CC(C)C)NC(=O)CNC(=O)[C@@H](NC(=O)[C@H](C)NC(=O)[C@H](Cc1c[nH]c2ccccc12)NC(=O)[C@H](CCC(N)=O)NC(=O)[C@@H](NC(=O)CNC(=O)[C@H](CC(C)C)NC(=O)[C@H](Cc1cccc(N(CCCl)CCCl)c1)NC(=O)OC(C)(C)C)[C@@H](C)O)C(C)C)C(N)=O [XIV, Boc-mMel-Leu-Gly-Thr-Gln-Trp-Ala-Val-Gly-Leu-Met-NH2] (Boc-[X1]LGTQWAVGLM-NH2)
IC50 (bombesin receptors): 445 ± 60 nM

CSCC[C@H](NC(=O)[C@H](CC(C)C)NC(=O)[C@H](Cc1c[nH]cn1)NC(=O)CNC(=O)[C@@H](NC(=O)[C@H](C)NC(=O)[C@H](Cc1c[nH]c2ccccc12)NC(=O)[C@H](CCC(N)=O)NC(=O)[C@@H](N)Cc1cccc(N(CCCl)CCCl)c1)C(C)C)C(N)=O [XIX, H-mMel-Gln-Trp-Ala-Val-Gly-His-Leu-Met-NH2.2HCl]
IC50 (bombesin receptors): 95 ± 8 nM

CSCC[C@H](NC(=O)[C@H](CC(C)C)NC(=O)[C@H](Cc1c[nH]cn1)NC(=O)CNC(=O)[C@@H](NC(=O)[C@H](C)NC(=O)[C@H](Cc1c[nH]c2ccccc12)NC(=O)[C@H](CCC(N)=O)NC(=O)[C@H](Cc1cccc(N(CCCl)CCCl)c1)NC(=O)OC(C)(C)C)C(C)C)C(N)=O [XVIII, Boc-mMel-Gln-Trp-Ala-Val-Gly-His-Leu-Met-NH3.CF3 COOH]
IC50 (bombesin receptors): 40 ± 12 nM

CSCC[C@H](NC(=O)[C@H](CC(C)C)NC(=O)CNC(=O)[C@@H](NC(=O)[C@H](C)NC(=O)[C@H](Cc1c[nH]c2ccccc12)NC(=O)[C@H](CCC(N)=O)NC(=O)[C@H](Cc1cccc(N(CCCl)CCCl)c1)NC(=O)OC(C)(C)C)C(C)C)C(N)=O [XX, Boc-mMel-Gln-Trp-Ala-Val-Gly-Leu-Met-NH2] (Boc-[X1]QWAVGLM-NH2)
IC50 (bombesin receptors): 60.1 ± 3.3 nM

Boc-mMel-Gln-Trp-Ala-Val-Gly-His(Dnp)-Leu-Met-NH2 [XVI]
ID50 (bombesin receptors): 390 ± 160 nM
[H3]thymidine incorporation, fold increase over basal value (Swiss 3T3 fibroblasts [1]; 5 nM): 1.2
[H3]thymidine incorporation, fold increase over basal value (Swiss 3T3 fibroblasts [1]; 50 nM): 1.6
[H3]thymidine incorporation, fold increase over basal value (Swiss 3T3 fibroblasts [1]; 500 nM): 3.1
[H3]thymidine incorporation, fold increase over basal value (Swiss 3T3 fibroblasts [1]; 5000 nM): 3.9
Effect on thymidine incorporation (in words) (Swiss 3T3 fibroblasts [1]): did not increase incorporation of thymidine
Minimal active dose, p115 phosphorylation [2]: 40 nM
Antagonism of BBS (in words) (Swiss 3T3 fibroblasts [3]): potent antagonists
% inhibition in the presence of 25 nM BBS (A) (Swiss 3T3 fibroblasts [4]; 500 nM): 17 ± 2%
% inhibition in the presence of 25 nM BBS (B) (Swiss 3T3 fibroblasts [4]; 500 nM): 47 ± 10%
% inhibition in the presence of 25 nM BBS (A) (Swiss 3T3 fibroblasts [4]; 5000 nM): 41 ± 1%
% inhibition in the presence of 25 nM BBS (B) (Swiss 3T3 fibroblasts [4]; 5000 nM): 37 ± 7%
Antagonism of BBS (in words) (Swiss 3T3 fibroblasts [4]): potent antagonists

Boc-pMel-Gln-Trp-Ala-Val-Gly-His(Dnp)-Leu-Met-NH2 [IV]
ID50 (bombesin receptors): 1,170 ± 400 nM
[H3]thymidine incorporation, fold increase over basal value (Swiss 3T3 fibroblasts [1]; 5 nM): 1
[H3]thymidine incorporation, fold increase over basal value (Swiss 3T3 fibroblasts [1]; 50 nM): 1
[H3]thymidine incorporation, fold increase over basal value (Swiss 3T3 fibroblasts [1]; 500 nM): 1.7
[H3]thymidine incorporation, fold increase over basal value (Swiss 3T3 fibroblasts [1]; 5000 nM): 2.3
Effect on thymidine incorporation (in words) (Swiss 3T3 fibroblasts [1]): did not increase incorporation of thymidine
Minimal active dose, p115 phosphorylation [2]: 50 nM
Antagonism of BBS (in words) (Swiss 3T3 fibroblasts [3]): potent antagonists
% inhibition in the presence of 25 nM BBS (A) (Swiss 3T3 fibroblasts [4]; 500 nM): 59 ± 3%
% inhibition in the presence of 25 nM BBS (B) (Swiss 3T3 fibroblasts [4]; 500 nM): 81%
% inhibition in the presence of 25 nM BBS (A) (Swiss 3T3 fibroblasts [4]; 5000 nM): 67 ± 3%
% inhibition in the presence of 25 nM BBS (B) (Swiss 3T3 fibroblasts [4]; 5000 nM): 73%
Antagonism of BBS (in words) (Swiss 3T3 fibroblasts [4]): potent antagonists

H-mMel-Gln-Trp-Ala-Val-Gly-His-(Dnp)-Leu-Met-NH2.HCl [XVII]
ID50 (bombesin receptors): 148 ± 27 nM
[H3]thymidine incorporation, fold increase over basal value (Swiss 3T3 fibroblasts [1]; 5 nM): 1
[H3]thymidine incorporation, fold increase over basal value (Swiss 3T3 fibroblasts [1]; 50 nM): 2.9
[H3]thymidine incorporation, fold increase over basal value (Swiss 3T3 fibroblasts [1]; 500 nM): 4.2
[H3]thymidine incorporation, fold increase over basal value (Swiss 3T3 fibroblasts [1]; 5000 nM): 3.9
Effect on thymidine incorporation (in words) (Swiss 3T3 fibroblasts [1]): did not increase incorporation of thymidine
Minimal active dose, p115 phosphorylation [2]: 4 nM
Antagonism of BBS (in words) (Swiss 3T3 fibroblasts [3]): potent antagonists
% inhibition in the presence of 25 nM BBS (A) (Swiss 3T3 fibroblasts [4]; 500 nM): 6 ± 3%
% inhibition in the presence of 25 nM BBS (B) (Swiss 3T3 fibroblasts [4]; 500 nM): 58 ± 13%
% inhibition in the presence of 25 nM BBS (A) (Swiss 3T3 fibroblasts [4]; 5000 nM): 20 ± 7%
% inhibition in the presence of 25 nM BBS (B) (Swiss 3T3 fibroblasts [4]; 5000 nM): 62 ± 1%
Antagonism of BBS (in words) (Swiss 3T3 fibroblasts [4]): potent antagonists

H-pMel-Gln-Trp-Ala-Val-Gly-His(Dnp)-Leu-Met-NH2.HCl
ID50 (bombesin receptors): 680 ± 150 nM
[H3]thymidine incorporation, fold increase over basal value (Swiss 3T3 fibroblasts [1]; 5 nM): 1
[H3]thymidine incorporation, fold increase over basal value (Swiss 3T3 fibroblasts [1]; 50 nM): 1
[H3]thymidine incorporation, fold increase over basal value (Swiss 3T3 fibroblasts [1]; 500 nM): 1.4
[H3]thymidine incorporation, fold increase over basal value (Swiss 3T3 fibroblasts [1]; 5000 nM): 1.8
Effect on thymidine incorporation (in words) (Swiss 3T3 fibroblasts [1]): did not increase incorporation of thymidine
Minimal active dose, p115 phosphorylation [2]: 100 nM
Antagonism of BBS (in words) (Swiss 3T3 fibroblasts [3]): potent antagonists
% inhibition in the presence of 25 nM BBS (A) (Swiss 3T3 fibroblasts [4]; 500 nM): 26 ± 8%
% inhibition in the presence of 25 nM BBS (B) (Swiss 3T3 fibroblasts [4]; 500 nM): 87 ± 9%
% inhibition in the presence of 25 nM BBS (A) (Swiss 3T3 fibroblasts [4]; 5000 nM): 44 ± 12%
% inhibition in the presence of 25 nM BBS (B) (Swiss 3T3 fibroblasts [4]; 5000 nM): 83 ± 6%
Antagonism of BBS (in words) (Swiss 3T3 fibroblasts [4]): potent antagonists
